The NIST ThermoML archive (doi:10.1016/j.fluid.2006.06.006)
“And” between values parts separate entries of the source, which are not always exact repeats. Equal values may be shown once.

Assay: excess molar enthalpy (molar enthalpy of mixing); xn = mol fraction of the nth substance listed
Settings: Liquid

O=C=O [carbon dioxide] + O
Settings	excess molar enthalpy
323.1 K, 2060 kPa, x1 = 0.0032	-0.0113 kcal/mol
323.1 K, 2060 kPa, x1 = 0.0037	-0.0131 kcal/mol
323.1 K, 2060 kPa, x1 = 0.004	-0.0138 kcal/mol
323.1 K, 2060 kPa, x1 = 0.0042	-0.0152 kcal/mol
323.1 K, 2060 kPa, x1 = 0.0048	-0.0168 kcal/mol
323.1 K, 2060 kPa, x1 = 0.0058	-0.0199 kcal/mol
323.1 K, 2060 kPa, x1 = 0.006	-0.022 kcal/mol
323.1 K, 2060 kPa, x1 = 0.0064	-0.0216 kcal/mol
323.1 K, 2060 kPa, x1 = 0.0079	-0.0221 kcal/mol and -0.0222 kcal/mol
323.1 K, 2060 kPa, x1 = 0.0106	-0.0228 kcal/mol
323.1 K, 2060 kPa, x1 = 0.0126	-0.0224 kcal/mol
323.1 K, 2060 kPa, x1 = 0.0158	-0.0228 kcal/mol
323.1 K, 2060 kPa, x1 = 0.021	-0.0223 kcal/mol
323.1 K, 2060 kPa, x1 = 0.0311	-0.0225 kcal/mol
323.1 K, 5100 kPa, x1 = 0.0052	-0.0162 kcal/mol
323.1 K, 5100 kPa, x1 = 0.0064	-0.02 kcal/mol
323.1 K, 5100 kPa, x1 = 0.0084	-0.0261 kcal/mol
323.1 K, 5100 kPa, x1 = 0.0092	-0.029 kcal/mol
323.1 K, 5100 kPa, x1 = 0.0101	-0.0323 kcal/mol
323.1 K, 5100 kPa, x1 = 0.0105	-0.0331 kcal/mol
323.1 K, 5100 kPa, x1 = 0.011	-0.0344 kcal/mol
323.1 K, 5100 kPa, x1 = 0.012	-0.0373 kcal/mol
323.1 K, 5100 kPa, x1 = 0.0125	-0.0394 kcal/mol
323.1 K, 5100 kPa, x1 = 0.0136	-0.0412 kcal/mol
323.1 K, 5100 kPa, x1 = 0.0138	-0.0417 kcal/mol
323.1 K, 5100 kPa, x1 = 0.0147	-0.0429 kcal/mol
323.1 K, 5100 kPa, x1 = 0.0151	-0.0441 kcal/mol
323.1 K, 5100 kPa, x1 = 0.0155	-0.0438 kcal/mol
323.1 K, 5100 kPa, x1 = 0.0156	-0.0448 kcal/mol
323.1 K, 5100 kPa, x1 = 0.0172	-0.0438 kcal/mol
323.1 K, 5100 kPa, x1 = 0.0181	-0.0441 kcal/mol
323.1 K, 5100 kPa, x1 = 0.019	-0.0454 kcal/mol
323.1 K, 5100 kPa, x1 = 0.0201	-0.0438 kcal/mol
323.1 K, 5100 kPa, x1 = 0.0208	-0.0453 kcal/mol
323.1 K, 5100 kPa, x1 = 0.0254	-0.0443 kcal/mol
323.1 K, 10530 kPa, x1 = 0.01	-0.0178 kcal/mol
323.1 K, 10530 kPa, x1 = 0.012	-0.0208 kcal/mol
323.1 K, 10530 kPa, x1 = 0.0132	-0.0243 kcal/mol
323.1 K, 10530 kPa, x1 = 0.0165	-0.0301 kcal/mol
323.1 K, 10530 kPa, x1 = 0.0197	-0.0321 kcal/mol
323.1 K, 10530 kPa, x1 = 0.023	-0.0348 kcal/mol
323.1 K, 10530 kPa, x1 = 0.0249	-0.0347 kcal/mol
323.1 K, 10530 kPa, x1 = 0.026	-0.037 kcal/mol
323.1 K, 10530 kPa, x1 = 0.0323	-0.0368 kcal/mol
323.1 K, 10530 kPa, x1 = 0.0324	-0.0368 kcal/mol
323.1 K, 10530 kPa, x1 = 0.0446	-0.0361 kcal/mol
323.1 K, 10530 kPa, x1 = 0.0508	-0.0359 kcal/mol
323.1 K, 10530 kPa, x1 = 0.0625	-0.0354 kcal/mol
323.1 K, 10530 kPa, x1 = 0.0627	-0.0356 kcal/mol
323.1 K, 14200 kPa, x1 = 0.0105	-0.0142 kcal/mol
323.1 K, 14200 kPa, x1 = 0.0125	-0.0168 kcal/mol
323.1 K, 14200 kPa, x1 = 0.0139	-0.0189 kcal/mol
323.1 K, 14200 kPa, x1 = 0.0173	-0.0225 kcal/mol
323.1 K, 14200 kPa, x1 = 0.0207	-0.025 kcal/mol
323.1 K, 14200 kPa, x1 = 0.0241	-0.0268 kcal/mol
323.1 K, 14200 kPa, x1 = 0.0248	-0.027 kcal/mol
323.1 K, 14200 kPa, x1 = 0.0261	-0.0277 kcal/mol
323.1 K, 14200 kPa, x1 = 0.0274	-0.0279 kcal/mol
323.1 K, 14200 kPa, x1 = 0.0287	-0.0288 kcal/mol
323.1 K, 14200 kPa, x1 = 0.0307	-0.029 kcal/mol
323.1 K, 14200 kPa, x1 = 0.034	-0.0284 kcal/mol
323.1 K, 14200 kPa, x1 = 0.047	-0.0283 kcal/mol
323.1 K, 14200 kPa, x1 = 0.0658	-0.0279 kcal/mol
323.1 K, 20200 kPa, x1 = 0.011	-0.0128 kcal/mol
323.1 K, 20200 kPa, x1 = 0.0147	-0.0167 kcal/mol
323.1 K, 20200 kPa, x1 = 0.0183	-0.0207 kcal/mol
323.1 K, 20200 kPa, x1 = 0.0197	-0.0216 kcal/mol
323.1 K, 20200 kPa, x1 = 0.021	-0.0236 kcal/mol
323.1 K, 20200 kPa, x1 = 0.0239	-0.0236 kcal/mol
323.1 K, 20200 kPa, x1 = 0.0253	-0.0238 kcal/mol
323.1 K, 20200 kPa, x1 = 0.0274	-0.0246 kcal/mol
323.1 K, 20200 kPa, x1 = 0.0288	-0.0248 kcal/mol
323.1 K, 20200 kPa, x1 = 0.0359	-0.0249 kcal/mol
323.1 K, 20200 kPa, x1 = 0.0427	-0.0252 kcal/mol
323.1 K, 20200 kPa, x1 = 0.0461	-0.0249 kcal/mol
323.1 K, 20200 kPa, x1 = 0.0494	-0.0251 kcal/mol
323.1 K, 20200 kPa, x1 = 0.0692	-0.0247 kcal/mol
373.1 K, 5050 kPa, x1 = 0.002	-0.00308 kcal/mol
373.1 K, 5050 kPa, x1 = 0.0025	-0.00418 kcal/mol
373.1 K, 5050 kPa, x1 = 0.003	-0.00476 kcal/mol
373.1 K, 5050 kPa, x1 = 0.004	-0.00614 kcal/mol
373.1 K, 5050 kPa, x1 = 0.0045	-0.00686 kcal/mol
373.1 K, 5050 kPa, x1 = 0.005	-0.00767 kcal/mol
373.1 K, 5050 kPa, x1 = 0.006	-0.00901 kcal/mol
373.1 K, 5050 kPa, x1 = 0.007	-0.01 kcal/mol
373.1 K, 5050 kPa, x1 = 0.0075	-0.0109 kcal/mol
373.1 K, 5050 kPa, x1 = 0.008	-0.0112 kcal/mol
373.1 K, 5050 kPa, x1 = 0.009	-0.0112 kcal/mol
373.1 K, 5050 kPa, x1 = 0.01	-0.0113 kcal/mol and -0.011 kcal/mol
373.1 K, 5050 kPa, x1 = 0.011	-0.0113 kcal/mol
373.1 K, 5050 kPa, x1 = 0.0125	-0.0109 kcal/mol
373.1 K, 5050 kPa, x1 = 0.014	-0.011 kcal/mol
373.1 K, 5050 kPa, x1 = 0.0149	-0.0103 kcal/mol
373.1 K, 5050 kPa, x1 = 0.0154	-0.0106 kcal/mol
373.1 K, 5050 kPa, x1 = 0.0174	-0.00997 kcal/mol
373.1 K, 5050 kPa, x1 = 0.0179	-0.0097 kcal/mol
373.1 K, 5050 kPa, x1 = 0.0198	-0.00939 kcal/mol
373.1 K, 10080 kPa, x1 = 0.0068	-0.00801 kcal/mol
373.1 K, 10080 kPa, x1 = 0.0081	-0.0088 kcal/mol
373.1 K, 10080 kPa, x1 = 0.0094	-0.0104 kcal/mol
373.1 K, 10080 kPa, x1 = 0.0101	-0.0114 kcal/mol
373.1 K, 10080 kPa, x1 = 0.0108	-0.0122 kcal/mol
373.1 K, 10080 kPa, x1 = 0.0134	-0.0147 kcal/mol
373.1 K, 10080 kPa, x1 = 0.0135	-0.0145 kcal/mol
373.1 K, 10080 kPa, x1 = 0.02	-0.0151 kcal/mol
373.1 K, 10080 kPa, x1 = 0.0201	-0.0148 kcal/mol
373.1 K, 10080 kPa, x1 = 0.0228	-0.0142 kcal/mol
373.1 K, 10080 kPa, x1 = 0.0263	-0.0141 kcal/mol
373.1 K, 10080 kPa, x1 = 0.0265	-0.0145 kcal/mol
373.1 K, 10080 kPa, x1 = 0.0294	-0.0134 kcal/mol
373.1 K, 10080 kPa, x1 = 0.039	-0.0134 kcal/mol
373.1 K, 10080 kPa, x1 = 0.0516	-0.0122 kcal/mol
373.1 K, 19500 kPa, x1 = 0.0037	-0.0016 kcal/mol
373.1 K, 19500 kPa, x1 = 0.0044	-0.00182 kcal/mol
373.1 K, 19500 kPa, x1 = 0.0051	-0.00198 kcal/mol
373.1 K, 19500 kPa, x1 = 0.0059	-0.00225 kcal/mol
373.1 K, 19500 kPa, x1 = 0.0066	-0.00251 kcal/mol
373.1 K, 19500 kPa, x1 = 0.0081	-0.00294 kcal/mol
373.1 K, 19500 kPa, x1 = 0.0087	-0.00335 kcal/mol
373.1 K, 19500 kPa, x1 = 0.0088	-0.00327 kcal/mol
373.1 K, 19500 kPa, x1 = 0.0095	-0.00337 kcal/mol
373.1 K, 19500 kPa, x1 = 0.011	-0.00411 kcal/mol
373.1 K, 19500 kPa, x1 = 0.0123	-0.00454 kcal/mol
373.1 K, 19500 kPa, x1 = 0.0145	-0.00464 kcal/mol
373.1 K, 19500 kPa, x1 = 0.0146	-0.00492 kcal/mol
373.1 K, 19500 kPa, x1 = 0.0159	-0.00504 kcal/mol
373.1 K, 19500 kPa, x1 = 0.0167	-0.00492 kcal/mol
373.1 K, 19500 kPa, x1 = 0.0181	-0.00554 kcal/mol
373.1 K, 19500 kPa, x1 = 0.0182	-0.00535 kcal/mol
373.1 K, 19500 kPa, x1 = 0.0195	-0.00564 kcal/mol
373.1 K, 19500 kPa, x1 = 0.0217	-0.0054 kcal/mol
373.1 K, 19500 kPa, x1 = 0.0218	-0.0054 kcal/mol
373.1 K, 19500 kPa, x1 = 0.0251	-0.00531 kcal/mol
373.1 K, 19500 kPa, x1 = 0.0253	-0.00538 kcal/mol
373.1 K, 19500 kPa, x1 = 0.0265	-0.00526 kcal/mol
373.1 K, 19500 kPa, x1 = 0.03	-0.00488 kcal/mol
373.1 K, 19500 kPa, x1 = 0.0521	-0.00258 kcal/mol
373.1 K, 19500 kPa, x1 = 0.0603	-0.00186 kcal/mol
373.1 K, 19500 kPa, x1 = 0.0688	-0.00086 kcal/mol
373.1 K, 19500 kPa, x1 = 0.0691	-0.00129 kcal/mol
373.1 K, 19500 kPa, x1 = 0.0771	-0.000478 kcal/mol
